Key:
[1] = tested on: lambsquarters; experiment: Test Example 5: herbicidal effect by foliage application, plastic box (Table 20, symbol O); format: in vivo, lambsquarters (Chenopodium album); details: foliage application, 320 g/ha; for herbicidal effect on lambsquarters (O): three weeks after application
From the text: (§1) [Test Example 5] Herbicidal Effect Test by Foliage Application
(§2) Sterilized diluvial soil was placed in a plastic box having a length of 21 cm, a width of 13 cm, and a depth of 7 cm. The seeds of each of southern crabgrass, green foxtail, barnyard grass, wild oat, blackgrass, Italian ryegrass, windgrass, velvetleaf, redroot pigweed, lambsquarters, chickweed, false cleavers, persian speedwell, corn, soybean, rice, wheat, beet, and rapeseed were sowed in a spot-like manner and covered with the soil having a thickness of about 1.5 cm. Thereafter, the plants were grown in a greenhouse at 25° C. to 30° C. After 14-day growth of the plants, the emulsion agent of the compound of the present invention prepared according to Formulation Example 2 was diluted with water so as to achieve a predetermined herbicide amount, and the diluted emulsion agent was uniformly applied to a foliage part with a small-sized spray. Three weeks after the herbicide application, the effect of the herbicide on each plant was evaluated according to the criteria of Test Example 1.

[2] = tested on: barnyard grass; experiment: Test Example 5: herbicidal effect by foliage application, plastic box (Table 20, symbol H); format: in vivo, barnyard grass (Echinochloa crus-galli); details: foliage application, 320 g/ha; for herbicidal effect on barnyard grass (H): three weeks after application
Procedure, shortened: (§3)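 Plants sown in sterilized diluvial soil and grown 14 days in a greenhouse at 25° C to 30° C, then sprayed on the foliage with the compound's emulsion diluted in water to a predetermined herbicide amount. Injury to weeds and crops scored three weeks after application on a visual rating scale.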

[3] = tested on: barnyard grass; experiment: Test Example 3: herbicidal effect by foliage application, Wagner pot (Table 18, symbol H); format: in vivo, barnyard grass (Echinochloa crus-galli)
Method: [Test Example 3] Herbicidal Effect Test by Foliage Application After alluvial soil was placed into 1/10000 are of Wagner pot, water was poured and mixed to form a submerged condition having a water depth of 0.1 cm to 0.5 cm. Seeds of barnyard grass, Chinese sprangletop, rice flat sedge, and rice were sowed and the pot was placed in a greenhouse at 25° C. to 30° C. for growth of the plants. After 14-day growth of the plants, the emulsion agent of the compound of the present invention prepared according to Formulation Example 2 was diluted with water so as to achieve a predetermined herbicide amount, and the diluted emulsion agent was uniformly applied to a foliage part with a small-sized spray. Three weeks after the herbicide application, the effect of the herbicide on each plant was evaluated according to the criteria of Test Example 1.

[4] = tested on: southern crabgrass; experiment: Test Example 5: herbicidal effect by foliage application, plastic box (Table 20, symbol F); format: in vivo, southern crabgrass (Digitaria ciliaris); details: foliage application, 320 g/ha; for herbicidal effect on southern crabgrass (F): three weeks after application
From the text: as §1, §2

[5] = tested on: Chinese sprangletop; experiment: Test Example 3: herbicidal effect by foliage application, Wagner pot (Table 18, symbol D); format: in vivo, chinese sprangletop (Leptochloa chinensis)
Procedure, shortened: (§4)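 Plants were sown in alluvial soil held under 0.1–0.5 cm standing water and grown 14 days in a greenhouse at 25–30 °C. An emulsifiable formulation, water-diluted to the set dose, was then sprayed onto the foliage, and effects were scored three weeks later using previously defined criteria.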

[6] = tested on: velvetleaf; experiment: Test Example 5: herbicidal effect by foliage application, plastic box (Table 20, symbol M); format: in vivo, velvetleaf (Abutilon theophrasti); details: foliage application, 320 g/ha; for herbicidal effect on velvetleaf (M): three weeks after application
Procedure, shortened: as §3

[7] = tested on: wild oat; experiment: Test Example 5: herbicidal effect by foliage application, plastic box (Table 20, symbol I); format: in vivo, wild oat (Avena fatua); details: foliage application, 320 g/ha; for herbicidal effect on wild oat (I): three weeks after application
From the text: as §1, §2

[8] = tested on: Italian ryegrass; experiment: Test Example 5: herbicidal effect by foliage application, plastic box (Table 20, symbol K); format: in vivo, Italian ryegrass (Lolium multiflorum); details: foliage application, 320 g/ha; for herbicidal effect on Italian ryegrass (K): three weeks after application
From the text: as §1, §2

[9] = tested on: persian speedwell; experiment: Test Example 5: herbicidal effect by foliage application, plastic box (Table 20, symbol R); format: in vivo, Persian speedwell (Veronica persica); details: foliage application, 320 g/ha; for herbicidal effect on persian speedwell (R): three weeks after application
From the text: as §1, §2

[10] = tested on: green foxtail; experiment: Test Example 5: herbicidal effect by foliage application, plastic box (Table 20, symbol G); format: in vivo, green foxtail (Setaria viridis); details: foliage application, 320 g/ha; for herbicidal effect on green foxtail (G): three weeks after application
Procedure, shortened: as §3

[11] = tested on: blackgrass; experiment: Test Example 5: herbicidal effect by foliage application, plastic box (Table 20, symbol J); format: in vivo, blackgrass (Alopecurus myosuroides); details: foliage application, 320 g/ha; for herbicidal effect on blackgrass (J): three weeks after application
Procedure, shortened: as §3

[12] = tested on: rice flat sedge; experiment: Test Example 3: herbicidal effect by foliage application, Wagner pot (Table 18, symbol E); format: in vivo, rice flat sedge (Cyperus iria)
Procedure, shortened: as §4

[13] = tested on: windgrass; experiment: Test Example 5: herbicidal effect by foliage application, plastic box (Table 20, symbol L); format: in vivo, windgrass (Apera spica-venti); details: foliage application, 320 g/ha; for herbicidal effect on windgrass (L): three weeks after application
Procedure, shortened: as §3

[14] = amount of applied herbicide 320 g/ha

Row | SMILES | herbicidal effect on lambsquarters (O) [1] | herbicidal effect on barnyard grass (H) [2] | herbicidal effect on barnyard grass (H) ([3]; 320 g/ha) | herbicidal effect on southern crabgrass (F) [4] | herbicidal effect on Chinese sprangletop (D) ([5]; 320 g/ha) | herbicidal effect on velvetleaf (M) [6] | herbicidal effect on wild oat (I) [7] | herbicidal effect on Italian ryegrass (K) [8] | herbicidal effect on persian speedwell (R) [9] | herbicidal effect on green foxtail (G) [10] | herbicidal effect on blackgrass (J) [11] | herbicidal effect on rice flat sedge (E) ([12]; 320 g/ha) | herbicidal effect on windgrass (L) [13] | also measured
1 | COc1cc2sc(-c3ccc(F)cc3OC)c(-c3c(O)c(C)nn(C)c3=O)c2cc1Cl [5-075] | 4 (Herbicidal rate of 70% or more and less than 90%) | 4 (Herbicidal rate of 70% or more and less than 90%) | 5 (Herbicidal rate of 90% or more (almost completely withered)) | 3 (Herbicidal rate of 40% or more and less than 70%) | 3 (Herbicidal rate of 40% or more and less than 70%) | 0 (Herbicidal rate of 5% or less (almost no effect)) | 0 (Herbicidal rate of 5% or less (almost no effect)) | 0 (Herbicidal rate of 5% or less (almost no effect)) | 4 (Herbicidal rate of 70% or more and less than 90%) | 5 (Herbicidal rate of 90% or more (almost completely withered)) | 3 (Herbicidal rate of 40% or more and less than 70%) | 3 (Herbicidal rate of 40% or more and less than 70%) | 3 (Herbicidal rate of 40% or more and less than 70%) | 
2 | CCOc1ccccc1-c1oc2ccc(Cl)cc2c1-c1c(O)c(C)nn(C)c1=O [9-003] | 0 (Herbicidal rate of 5% or less (almost no effect)) | 0 (Herbicidal rate of 5% or less (almost no effect)) |  | 0 (Herbicidal rate of 5% or less (almost no effect)) |  | 3 (Herbicidal rate of 40% or more and less than 70%) | 0 (Herbicidal rate of 5% or less (almost no effect)) | 0 (Herbicidal rate of 5% or less (almost no effect)) | 3 (Herbicidal rate of 40% or more and less than 70%) | 0 (Herbicidal rate of 5% or less (almost no effect)) | 0 (Herbicidal rate of 5% or less (almost no effect)) |  | 0 (Herbicidal rate of 5% or less (almost no effect)) | Herbicidal effect on H (barnyard grass), foliage application [3, 14]: 3 (Herbicidal rate of 40% or more and less than 70%); Herbicidal effect on D (Chinese sprangletop), foliage application [5, 14]: 0 (Herbicidal rate of 5% or less (almost no effect)); Herbicidal effect on E (rice flat sedge), foliage application [12, 14]: 1 (Herbicidal rate of 5% or more and less than 20%)
3 | COc1cc2sc(-c3ccc(F)cc3)c(-c3c(O)c(C)nn(C)c3=O)c2cc1Cl [5-067] | 3 (Herbicidal rate of 40% or more and less than 70%) | 0 (Herbicidal rate of 5% or less (almost no effect)) | 3 (Herbicidal rate of 40% or more and less than 70%) | 0 (Herbicidal rate of 5% or less (almost no effect)) | 5 (Herbicidal rate of 90% or more (almost completely withered)) | 0 (Herbicidal rate of 5% or less (almost no effect)) | 0 (Herbicidal rate of 5% or less (almost no effect)) | 0 (Herbicidal rate of 5% or less (almost no effect)) | 4 (Herbicidal rate of 70% or more and less than 90%) | 0 (Herbicidal rate of 5% or less (almost no effect)) | 1 (Herbicidal rate of 5% or more and less than 20%) | 4 (Herbicidal rate of 70% or more and less than 90%) | 1 (Herbicidal rate of 5% or more and less than 20%) | 
4 | COc1ccccc1-c1sc2c(F)cc(F)cc2c1-c1c(O)c(C)nn(C)c1=O [6-001] | 3 (Herbicidal rate of 40% or more and less than 70%) | 3 (Herbicidal rate of 40% or more and less than 70%) | 3 (Herbicidal rate of 40% or more and less than 70%) | 0 (Herbicidal rate of 5% or less (almost no effect)) | 2 (Herbicidal rate of 20% or more and less than 40%) | 4 (Herbicidal rate of 70% or more and less than 90%) | 0 (Herbicidal rate of 5% or less (almost no effect)) | 0 (Herbicidal rate of 5% or less (almost no effect)) | 0 (Herbicidal rate of 5% or less (almost no effect)) | 2 (Herbicidal rate of 20% or more and less than 40%) | 0 (Herbicidal rate of 5% or less (almost no effect)) | 4 (Herbicidal rate of 70% or more and less than 90%) | 0 (Herbicidal rate of 5% or less (almost no effect)) | 
5 | COc1ccc(-c2sc3cc(C)c(C)cc3c2-c2c(O)c(C)nn(C)c2=O)cc1 [5-092] | 0 (Herbicidal rate of 5% or less (almost no effect)) | 0 (Herbicidal rate of 5% or less (almost no effect)) | 2 (Herbicidal rate of 20% or more and less than 40%) | 0 (Herbicidal rate of 5% or less (almost no effect)) | 0 (Herbicidal rate of 5% or less (almost no effect)) | 0 (Herbicidal rate of 5% or less (almost no effect)) | 0 (Herbicidal rate of 5% or less (almost no effect)) | 0 (Herbicidal rate of 5% or less (almost no effect)) | 4 (Herbicidal rate of 70% or more and less than 90%) | 0 (Herbicidal rate of 5% or less (almost no effect)) | 0 (Herbicidal rate of 5% or less (almost no effect)) | 0 (Herbicidal rate of 5% or less (almost no effect)) | 0 (Herbicidal rate of 5% or less (almost no effect)) | 
6 | COc1nn(C)c(=O)c(-c2c(-c3cc4ccccc4o3)sc3ccccc23)c1O [1-194] |  |  |  |  |  |  |  |  |  |  |  |  |  | effect on lambsquarters (O) ([1]; 3 weeks after application): 0 (Herbicidal rate of 5% or less (almost no effect)); effect on barnyard grass (H) ([2]; 3 weeks after application): 0 (Herbicidal rate of 5% or less (almost no effect)); herbicidal effect on H (barnyard grass), rating 0-5 ([3]; 320 g/ha): 0 (Herbicidal rate of 5% or less (almost no effect)); effect on southern crabgrass (F) ([4]; 3 weeks after application): 0 (Herbicidal rate of 5% or less (almost no effect)); herbicidal effect on D (Chinese sprangletop), rating 0-5 ([5]; 320 g/ha): 0 (Herbicidal rate of 5% or less (almost no effect)); effect on velvetleaf (M) ([6]; 3 weeks after application): 0 (Herbicidal rate of 5% or less (almost no effect)); effect on wild oat (I) ([7]; 3 weeks after application): 1 (Herbicidal rate of 5% or more and less than 20%); effect on Italian ryegrass (K) ([8]; 3 weeks after application): 3 (Herbicidal rate of 40% or more and less than 70%); effect on persian speedwell (R) ([9]; 3 weeks after application): 0 (Herbicidal rate of 5% or less (almost no effect)); effect on green foxtail (G) ([10]; 3 weeks after application): 0 (Herbicidal rate of 5% or less (almost no effect)); effect on blackgrass (J) ([11]; 3 weeks after application): 0 (Herbicidal rate of 5% or less (almost no effect)); herbicidal effect on E (rice flat sedge), rating 0-5 ([12]; 320 g/ha): 2 (Herbicidal rate of 20% or more and less than 40%); effect on windgrass (L) ([13]; 3 weeks after application): 0 (Herbicidal rate of 5% or less (almost no effect))

— US20230085307A1, “PYRIDAZINONE COMPOUND AND HERBICIDE” (NISSAN CHEMICAL CORPORATION, priority 2019, published 2023)
